Measurements as given in patent US20230043035A1, “AGAROPHYTON CHILENSIS EXTRACT, RICH IN FREE FATTY ACIDS, AS A NUTRACEUTICAL OR NUTRITIONAL SUPPLEMENT, SUITABLE FOR MODULATING PPAR# ACTIVITY” (UNIVERSIDAD ANDRES BELLO, priority 2019, published 2023).

Tests used:
[1] = molecular target: T1, PPARγ (Homo sapiens, UniProt P37231); test: PPARγ activation assay (gal4 PPARγ reporter gene) in PC12 cells; type: cell-based; conditions: 25 μM, n=10
T1 construct: GAL4 (fusion partner); expressed in transfected cells; host or cells: PC12 cells, transiently transfected with Lipofectamine 2000
T1 sequence (P37231 238-503 limits assumed): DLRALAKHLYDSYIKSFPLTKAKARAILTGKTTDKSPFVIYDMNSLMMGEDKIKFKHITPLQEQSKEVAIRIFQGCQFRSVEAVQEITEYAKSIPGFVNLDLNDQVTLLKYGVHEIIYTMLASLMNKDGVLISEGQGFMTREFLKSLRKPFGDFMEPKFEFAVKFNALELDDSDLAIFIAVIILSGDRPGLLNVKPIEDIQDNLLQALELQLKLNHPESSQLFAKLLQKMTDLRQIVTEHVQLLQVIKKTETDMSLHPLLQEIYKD
Method: In the PPARγ activation assay, an assay with the reporter gene gal4 PPARγ is performed, which allow assessing the activation of PPARγ induced by ligand, to which end concentrations of 30 and 60 μg/mL were used. PC12 cells were seeded in a 48-well plate at a density of 100,000 cells/well/250 μL of maintenance medium containing the medium RPMI1640® (Roswell Park Memorial Institute-1640 Medium) supplemented with 10% of horse serum (HS), 5% of fetal bovine serum (FBS) and 1× antibiotic/antimicotic (Ab-Am). Then, the DNA (0.8 μg luciferase plasmid (MH100tkLUC), 0.8 μg PPARγGAL4 plasmid and 0.053 μg β-galactosidase plasmid, (β-Gal)) were mixed in OptiMEM® (Opti-Minimun Essential Medium). This constitutes the DNA mixture. In parallel, lipofectamine 2000 was diluted in OptiMEM®. This constitutes the Lipofectamine® mixture. […] The lysate was collected, centrifuged for 1 minute at 14000 rpm, the β-galactosidase and luciferase activity in the supernatant was measured, and the times of PPARγ activation was calculated relative to the DMSO control (final concentration in the medium of 0.1%). In parallel, the activity of β-galactosidase was assessed (colorimetry). […] The activity results were expressed as times of increase in relation to the activity obtained with control cells (treated only with DMSO). […]

[2] = test system: 3T3-L1 cells; test: Differentiation of 3T3-L1 cells into adipocytes, Oil Red O accumulation; type: cell-based; conditions: 25 μM, 3T3-L1, day 10, n=4
Method: (§1) In order to assess the effect of the claimed extracts on differentiation of fibroblasts into adipocytes, 3T3-L1 cells are cultured at low passage, avoiding cells from reaching confluence. […] Thereafter, the maintenance medium was replaced.

[3] = test system: 3T3-L1 cells; test: MTT viability assay in 3T3-L1 cells of the differentiation assay; type: cell-based; conditions: 25 μM, 3T3-L1, n=3
Method: In order to assess the effect of the claimed extracts on differentiation of fibroblasts into adipocytes, 3T3-L1 cells are cultured at low passage, avoiding cells from reaching confluence. […] Thereafter, the maintenance medium was replaced. […] After removing MTT, DMSO (99.9%) was added to lyse cells and dissolve MTT/MTT formazan. In order to assess absorbance at 570 nm and 620 nm in a spectrophotometer, 100 μl of this solution were moved to a 96-well plate. The difference between absorbances was calculated, and the survival relative to the control (DMSO) was determined.

[4] = test system: fabp4 gene; test: mRNA expression of adipocyte differentiation marker fabp4 in 3T3-L1 cells (qPCR); type: cell-based; conditions: 25 μM, 3T3-L1, day 7, n=3
Method: as §1

[5] = test system: cortical neurons; test: Neuroprotection assay: cortical neurons damaged with oligomycin A, MTT viability; type: cell-based, rat
Description: To assess the neuroprotective capacity of Extract B, a model of neuronal damage caused by chemical ischemia was used, preferably the model of damage caused by oligomycin A. Oligomycin A is a macrolide that blocks oxidative phosphorylation, inhibiting mitochondrial ATP synthase.
In order to assess the neuroprotective capacity, a primary culture of cortical neurons of stage E18 rat embryos was used. To this end, adult female rats were acquired, pregnant at stage 18, from the CINBIOT bioterium of the Faculty of Biological Science, Pontificia Universidad Católica de Chile. […]
On the 9th of culture, the challenge with oligomycin A was carried out. […] Thereafter, neuronal viability was determined, by removing the entire culture medium, it was washed once with PBS and incubated with 0.5 mg/mL of MTT in neurobasal medium without phenol red at 37° C. for 2 hours to establish the mitochondrial activity, wherein MTT (yellow) is transformed into MTT formazan (dark blue), when reduced by live cells. […] Subsequently, 100 μl of this solution were moved to a 96-wel plate to measure absorbance at 570 nm and 620 nm in spectrophotometer. The difference between absorbances (570-620) was calculated, and the survival was estimated relative to the control treated with DMSO and without damage caused by oligomycin A. The presence of MTT formazan is quantified at 570 nm. […]

CC(C)C[C@H](NC(=O)OCC1c2ccccc2-c2ccccc21)C(=O)O [FMOC-Leu] was tested, and the “PPARγ transcriptional activity, times higher than negative control” value [1] was 14.7 times, the “Oil Red O (neutral lipid) accumulation, times relative to control” value [2] was 1.1 and the “cell survival (MTT) relative to control (DMSO)” value [3] was 100%. The “fabp4 mRNA expression, times relative to control DMSO” value [4] was 1.7 times.
CC[C@@H]1/C=C/C=C/C[C@H](C)[C@H](O)[C@](C)(O)C(=O)[C@H](C)[C@@H](O)[C@H](C)C(=O)[C@H](C)[C@@H](O)[C@H](C)/C=C/C(=O)O[C@H]2[C@@H](C)[C@@H](CC1)O[C@@]1(CC[C@@H](C)[C@@H](C[C@H](C)O)O1)[C@@H]2C [oligomycin A, Oligomycin A] was tested, and the “neuronal viability after oligomycin A, % of undamaged DMSO control” value ([5]; oligomycin A 2 μM 30 min, no extract, rat cortical neurons) was 22.5%.
With vitamin E the “protection against oligomycin A” value ([5]; 10 μM alone, data not shown) was “does not provide protection”.
